Entries after “also recorded” stand apart in the source; their conditions may differ. Where a name gives a salt, the structure may show the parent alone. Read-outs that look alike come from different tables or passages of the source.
How the values were obtained:
[1] = test system: transplanted tumor in mice; assay type: in vivo, mouse; details: for effect on the antineoplastic activity of low dose sildenafil: 2 mg/kg/day with sildenafil citrate 10 or 20 mg/kg/day; for tumor inhibition rate: 2 weeks; for toxicity / adverse reactions of the mice during the experimental period: citrate
cultured tumor cells [2] = assay: growth of cultured tumor cells; assay type: cell-based; details: 200 μM; citrate
Excerpt: (§1) The antitneoplastic mechanism of sildenafil at low doses is not yet clear.
(§2) The antitneoplastic mechanism of low dose sildenafil is not yet clear.

[3] = test system: transplanted tumor derived from liver cancer; details: mouth-fed, combined with Stivarga (regorafenib); cited from earlier work
[4] = test system: transplanted tumor of prostate cancer; details: cited from earlier work
cultured tumor cells [5] = assay: production of reactive oxygen species (ROS) in cultured tumor cells; assay type: cell-based; details: 300 μM; citrate
Excerpt: as §1, §2

[6] = sildenafil concentration in the blood after oral intake by an adult patient; assay type: in vivo, human; details: low oral doses (2-10 mg), estimated
Excerpt: as §1, §2

[7] = test system: human hepatocellular carcinoma cell line (HEPG2); details: 2 μM, citrate; cited from earlier work
malignant tumors = assay: general statement on low dose sildenafil: tumor growth inhibition in vivo and tolerability; details: low dose: daily oral 0.04˜0.5 mg per 1 kg, injection 0.04˜0.2 mg per 1 kg or topical less than 1%; for toxicity or side effects: citrate
Excerpt: It can be used to achieve effective control of tumor growth and improve the treatment of tumors.

CN(C)CCC(c1ccc(Cl)cc1)c1ccccn1 (stereo not drawn) [chlorphenamine maleate]
effect on the antineoplastic activity of low dose sildenafil [1]: directly counteract the antineoplastic activity
effect on the antineoplastic activity of low dose sildenafil ([1]; listed as chlorphenamine malate): significantly counteracted the antineoplastic activity

CCCc1nn(C)c2c(=O)[nH]c(-c3cc(S(=O)(=O)N4CCN(C)CC4)ccc3OCC)nc12.O=C(O)CC(O)(CC(=O)O)C(=O)O [sildenafil, 1-[[3-(6,7-Dihydro-1-methyl-7-oxo-3-propyl-1H-pyrazolo[4,3-d]pyrimidin-5-yl)-4-ethoxyphenyl]sulfonyl]-4-methylpiperazine citrate]
tumor inhibition rate ([1]; 10 mg/kg/day, combined with chlorphenamine maleate 2 mg/kg/day): 16%
tumor inhibition rate ([1]; 20 mg/kg/day, combined with chlorphenamine maleate 2 mg/kg/day): 7%
inhibitory effect on growth of the transplanted tumor ([1]; 50 mg/kg/day): no obvious inhibitory effects
tumor inhibition rate ([1]; gavage 10 mg/kg/day, alone): 63%
tumor growth inhibition rate ([1]; gavage 10 mg/kg/day, 36 days, dissolved in 25% ethanol): 68%
toxicity / adverse reactions of the mice during the experimental period ([1]; gavage 10 mg/kg/day, 36 days, 10 mg/kg/day): no significant or observable toxicity reactions
toxicity / adverse reactions of the mice during the experimental period ([1]; gavage 10 mg/kg/day, 36 days, listed as sildenafil citrate, 10 mg/kg/day): no significant or observable adverse reactions
tumor inhibition rate ([1]; gavage 20 mg/kg/day, alone): 50%
effect on the growth of cultured tumor cells (cultured tumor cells [2]): direct inhibitory effect; also recorded: directly inhibited the growth
growth of transplanted tumor derived from liver cancer [3]: significantly inhibit the growth
antineoplastic effect used alone ([4]; alone at normal doses (25-100 mg), versus control group): not significant
growth of transplanted tumor of prostate cancer ([4]; intraperitoneal injection, combined with Adriamycin (Doxorubicin)): significantly inhibit the growth
production of reactive oxygen species (ROS) (cultured tumor cells [5]): induced production of reactive oxygen species (ROS); also recorded: induce the production of reactive oxygen species (ROS)
drug concentration in the blood [6]: lower than 0.1 μM
expression of IkB nitro-tyrosine and apoptotic gene ligand Fas-L [7]: stimulate the expression
inhibition rate of tumor growth (malignant tumors): more than 50%
toxicity or side effects (malignant tumors): does not produce significant toxicity or side effects
toxicity or side effects (malignant tumors; listed as Sildenafil citrate): without significant toxic side effects
toxicity or side effects (malignant tumors; listed as sildenafil citrate): without significant toxic side effects

Source: patent publication US20190183893A1 (Guangzhou Dawnlight Biotech Company, priority 2016, published 2019)
